Source: ChEMBL document CHEMBL1140089 (J Med Chem, 2008)

Target: MAP kinase-activated protein kinase 2 (Homo sapiens, UniProt P49137)
Test: Inhibition of human recombinant MK2 expressed in Escherichia coli BL21(DE3) after 60 mins

Sequence of MAP kinase-activated protein kinase 2 (P49137 whole entry): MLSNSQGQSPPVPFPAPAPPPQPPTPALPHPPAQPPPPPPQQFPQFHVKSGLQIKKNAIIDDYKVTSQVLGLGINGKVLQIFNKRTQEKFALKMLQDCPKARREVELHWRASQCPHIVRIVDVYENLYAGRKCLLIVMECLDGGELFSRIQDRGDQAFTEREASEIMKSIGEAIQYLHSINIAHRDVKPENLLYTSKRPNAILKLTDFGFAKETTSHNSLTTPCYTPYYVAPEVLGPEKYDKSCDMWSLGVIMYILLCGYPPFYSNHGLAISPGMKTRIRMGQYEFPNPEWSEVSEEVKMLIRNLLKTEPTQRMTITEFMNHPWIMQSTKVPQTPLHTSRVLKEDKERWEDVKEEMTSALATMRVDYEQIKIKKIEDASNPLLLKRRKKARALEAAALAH

Row | IC50 | SMILES
1 | 85 µM | Oc1cccc2cnccc12
2 | > 100 µM | Oc1cccc2ccccc12 [1-NAPHTHOL]
